Laboratory results published in patent US20260374739A1, “SMALL MOLECULAR WEIGHT CHEMICAL COMPOUND TO ANTAGONIZE EPH-EPHRIN TETRAMERIZATION AND INHIBIT BIDIRECTIONAL SIGNALING” (THE BOARD OF REGENTS OF THE UNIVERSITY OF TEXAS SYSTEM, priority 2022, published 2026).
Read-outs that look alike come from different tables or passages of the source.

Legend:
[1] = biological target: T1, EphB1-EB2 (Rattus norvegicus, UniProt P09759); assay: ELISA EB2-His binding to immobilized EphB1-Fc; parameters: species or system mouse EB2; conditions: 5 μM
T1 construct: mouse (Mus musculus) EB2-His ectodomain (Sino Biologicals), ELISA
Procedure: The 32 hits were then subjected to ELISA in which EphB1-Fc was first immobilized in 96 well Protein A plates, then soluble EB2-His was added with hit compound in triplicate, again at 5 μM. After 2 hr at RT to allow EB2-His binding to EphB1-Fc, wells were washed, incubated with nickel-activated horseradish peroxidase (HisProbe-HRP) to detect bound EB2-His protein, washed, and then incubated with ELISA Pico Chemiluminescent Substrate (both from Thermo-Fisher) before being read in a luminometer. A single-protein counter ELISA using the dual-tagged EphB2-His-Fc ectodomain protein was also run. […] For simplicity, we call this compound A20.

[2] = biological target: T2, EphB1-EphrinB2 (Rattus norvegicus, UniProt P09759); assay: shortened association (80 sec) Octet, immobilized rat EphB1-Fc binding to 100 nM mEB2-His; parameters: species or system mouse EphrinB2; conditions: for Kd: 1:1 fit, read-out: KD of EphB1-EB2; for increase in rate of dissociation (Kdis) / lower affinity of EphB1-EB2 / tetramer accumulation slope: role: inhibitor
T2 construct: rat EphB1-Fc residues 18-538; mouse EB2-His residues 18-232; purchased R&D Systems (EphB1-Fc); Sino Biologicals (EB2-His)
T2 sequence (P09759 18-538): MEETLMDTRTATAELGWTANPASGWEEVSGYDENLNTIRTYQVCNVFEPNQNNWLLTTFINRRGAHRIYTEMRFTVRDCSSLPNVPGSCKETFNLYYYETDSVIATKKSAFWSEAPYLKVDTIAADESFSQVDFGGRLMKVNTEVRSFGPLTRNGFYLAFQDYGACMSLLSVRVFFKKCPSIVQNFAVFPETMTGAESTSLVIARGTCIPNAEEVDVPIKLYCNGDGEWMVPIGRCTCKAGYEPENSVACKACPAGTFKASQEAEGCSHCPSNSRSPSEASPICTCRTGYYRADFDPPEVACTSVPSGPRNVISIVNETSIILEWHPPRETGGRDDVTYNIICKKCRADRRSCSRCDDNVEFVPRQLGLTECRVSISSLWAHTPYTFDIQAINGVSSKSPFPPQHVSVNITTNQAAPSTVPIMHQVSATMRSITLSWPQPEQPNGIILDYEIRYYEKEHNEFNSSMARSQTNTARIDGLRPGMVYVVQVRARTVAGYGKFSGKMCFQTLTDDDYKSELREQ
Procedure: In the above disclosed Octet interaction studies using human proteins the association and dissociation times were doubled to 800 and 1,000 sec, respectively, resulting in a greater accumulation of the super-stable surmountable and extra-super-stable unsurmountable forms of the Eph-Ephrin tetramers. To better assess early binding activities in the absence of A20, biophysical studies were conducted in which the association times were shortened to 80, 40, 20, 15, 10, and 5 sec, followed by a standard 500 sec dissociation, and where biosensor immobilized rEphB1-Fc ectodomain was exposed to 100 nM soluble mEB2-His. Focusing first on the run with 80 sec association step and for illustrative purpose (FIG. 23), the biosensor response indicates the expected rapid formation of EphB1-EB2 dimers with extremely high 87° slope for the first 10-15 sec of the association, which then quickly bends again as expected this time to a −60° slope as tetramers begin to accumulate. […] The dissociation response then quickly bent to level off and plateau at a signal much higher than baseline to represent the species of stable EphB1-EB2 tetramers that remained complexed throughout the remaining dissociation step.
To assess how A20 chemicals alter early binding activities, 80 sec Octet runs were then conducted using 0, 10, and 100 μM concentrations of the A20 salt compound (FIG. 25A 25B). In the absence of A20, the association response of immobilized EphB1 binding to soluble EB2 is typical to that shown in FIG. 24 and indicates rapid early formation of dimers with very high 87° slope that quickly bends to the tetramerization accumulation slope of −60°, and then once in the dissociation step the slope abruptly reverses to show fast-off of the dimer species with a signal that then leveled off in this experiment at 67% of the maximum response and represents accumulation of the stable tetramers. In runs containing A20, even though there was no effect on the early and fast formation of dimers during the 80 sec association step, there was a clear and very strong dose-dependent reduction in accumulation of the tetramer.
This can be especially seen in the analysis of the kinetic data where the parameters were set to calculate information based off of a 1:1 interaction (FIG. 25C). […] This increased rate of dissociation reflects the near absence in formation of stable tetramers and provides a fairly accurate representation of the Kdis that is specifically attributed to the fast-off melting of dimers. Summarizing these biophysical studies, in the presence of A20 only the fast-on/fast-off dimers form and are visualized in the association step, quickly reaching a homeostasis level of dimers forming and melting in equilibrium (fast-on/fast-off), and not being able to associate into tetramers. Then, when placed into the dissociation step, all the existing dimers quickly melt off leaving behind the few tetramers that were able to form. […] Based on the results, it is concluded that A20 chemicals can be classified as specific/select inhibitors of Eph-Ephrin tetramerization.

[3] = oral bioavailability, IV 3 mg/kg vs PO 30 mg/kg; format: in vivo, mouse; conditions: PBS
Procedure: A20.2×HCl compound was provided to the UT Southwestern PK Core facility and tested for bioavailability after a single dose when either injected intravenous (IV) at 3 mg/kg or provided by oral gavage (PO) at 30 mg/kg using PBS as vehicle. The data on oral gavage is quite impressive and indicates significant levels of A20 persist, especially in the liver, after a single dose.
To examine the drug-like nature of the disclosed compounds, tests for solubility was conducted.

SMILES | ELISA signal [1] | Kd ([2]; in presence of 10 μM A20) | Kd ([2]; in presence of 100 μM A20) | increase in rate of dissociation (Kdis) ([2]; 10 μM A20) | lower affinity of EphB1-EB2 ([2]; 10 μM A20) | tetramer accumulation slope ([2]; 10 μM A20, 60° without) | increase in rate of dissociation (Kdis) ([2]; 100 μM A20) | lower affinity of EphB1-EB2 ([2]; 100 μM A20) | tetramer accumulation slope ([2]; 100 μM A20) | oral bioavailability [3]
Oc1c(Br)cc(CN2CCOCC2)c2cccnc12 [Compound 5, 7-bromo-5-(morpholinomethyl)quinolin-8-ol] | reduced signal in the two-protein ELISA | 10.5 nM | 46.2 nM | 90 fold | 76 fold | 16 ° | 275 fold | 337 fold | flat line with no slope | 
Oc1c(Br)cc(CN2CCOCC2)c2cccnc12 [Compound 6, 4-((7-bromo-8-hydroxyquinolin-1-ium-5-yl)methyl)morpholin-4-ium chloride] |  |  |  |  |  |  |  |  |  | orally bioavailable
